Values joined by “and” are separate entries in the source; they are usually repeats but may differ in a detail not shown here. Equal values may be shown once. Records with an inconclusive call do not appear.
Test system: BDF1 mice, colon carcinoma 38 sc, T/C %
Assay: NCI In Vivo Anticancer Drug Screen. Data for tumor model Colon Carcinoma 38 (subcutaneous) in B6D2F1 (BDF1) mice
Conditions: endpoint: median tumor weight (est.), higher = larger tumour
Method in brief: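 Ratio of survival or tumor size, compound-treated animals relative to vehicle controls, in tumor-bearing mice.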

[1] = dose: 200.0 mg/kg/injection, schedule: Q07DX002 (ip), vehicle: Klucel (hydroxypropylcellulose) (HPC)
[2] = dose: 400.0 mg/kg/injection, schedule: Q07DX002 (ip), vehicle: Klucel (hydroxypropylcellulose) (HPC)
[3] = dose: 50.0 mg/kg/injection, schedule: Q07DX002 (ip), vehicle: saline
[4] = dose: 100.0 mg/kg/injection, schedule: Q07DX002 (ip), vehicle: saline
[5] = dose: 200.0 mg/kg/injection, schedule: Q07DX002 (ip), vehicle: saline
[6] = dose: 800.0 mg/kg/injection, schedule: Q07DX002 (ip), vehicle: saline
[7] = dose: 25.0 mg/kg/injection, schedule: Q07DX002 (ip), vehicle: Klucel (hydroxypropylcellulose) (HPC)
[8] = dose: 100.0 mg/kg/injection, schedule: Q07DX002 (ip), vehicle: Klucel (hydroxypropylcellulose) (HPC)
[9] = dose: 50.0 mg/kg/injection, schedule: Q07DX002 (ip), vehicle: saline with Tween-80
[10] = dose: 100.0 mg/kg/injection, schedule: Q07DX002 (ip), vehicle: saline with Tween-80
[11] = dose: 200.0 mg/kg/injection, schedule: Q07DX002 (ip), vehicle: saline with Tween-80
[12] = dose: 12.5 mg/kg/injection, schedule: Q07DX002 (ip), vehicle: saline with Tween-80

C[C@]12CCC(=O)C=C1CC[C@@H]1[C@@H]2[C@@H](O)C[C@@]2(C)[C@H]1CC[C@]2(O)C(=O)CO
T/C (dose: 40.0 mg/kg/injection, schedule: Q07DX003 (ip), vehicle: Klucel (hydroxypropylcellulose) (HPC)): 73 % of control
T/C (dose: 80.0 mg/kg/injection, schedule: Q07DX003 (ip), vehicle: Klucel (hydroxypropylcellulose) (HPC)): 76 % of control
T/C (dose: 160.0 mg/kg/injection, schedule: Q07DX003 (ip), vehicle: Klucel (hydroxypropylcellulose) (HPC)): 123 % of control and 104 % of control
T/C [1]: 63 % of control
T/C (dose: 320.0 mg/kg/injection, schedule: Q07DX003 (ip), vehicle: Klucel (hydroxypropylcellulose) (HPC)): 118 % of control
T/C [2]: 74 % of control
T/C (dose: 640.0 mg/kg/injection, schedule: Q07DX003 (ip), vehicle: Klucel (hydroxypropylcellulose) (HPC)): 79 % of control and 103 % of control
T/C (dose: 800.0 mg/kg/injection, schedule: Q07DX002 (ip), vehicle: Klucel (hydroxypropylcellulose) (HPC)): 93 % of control
T/C (dose: 800.0 mg/kg/injection, schedule: Q07DX003 (ip), vehicle: Klucel (hydroxypropylcellulose) (HPC)): 57 % of control
T/C (dose: 1200.0 mg/kg/injection, schedule: Q07DX002 (ip), vehicle: Klucel (hydroxypropylcellulose) (HPC)): 70 % of control

NC(=O)c1c[se]c(C2OC(CO)C(O)C2O)n1 (stereo not drawn)
T/C (dose: 25.0 mg/kg/injection, schedule: Q07DX002 (ip), vehicle: water): 56 % of control
T/C [3]: 79 % of control
T/C (dose: 50.0 mg/kg/injection, schedule: Q07DX002 (ip), vehicle: water): 74 % of control
T/C [4]: 89 % of control
T/C (dose: 100.0 mg/kg/injection, schedule: Q07DX002 (ip), vehicle: water): 44 % of control
T/C [5]: 73 % of control
T/C (dose: 200.0 mg/kg/injection, schedule: Q07DX002 (ip), vehicle: water): 42 % of control
T/C (dose: 400.0 mg/kg/injection, schedule: Q07DX002 (ip), vehicle: saline): 74 % of control
T/C (dose: 400.0 mg/kg/injection, schedule: Q07DX002 (ip), vehicle: water): 40 % of control
T/C [6]: 90 % of control

C/C=C/C=C/c1cc2cc3c(c(O)c2c(=O)[nH]1)C1(CC3)C(O)=c2c(=O)c3c(=O)cc(OC)c(=O)c=3c(=O)c2=C1O (stereo not drawn)
T/C (dose: 0.06 mg/kg/injection, schedule: Q07DX002 (ip), vehicle: DMSO): 74 % of control and 97 % of control
T/C (dose: 0.12 mg/kg/injection, schedule: Q07DX002 (ip), vehicle: DMSO): 115 % of control and 91 % of control
T/C (dose: 0.15 mg/kg/injection, schedule: Q07DX002 (ip), vehicle: DMSO): 81 % of control
T/C (dose: 0.25 mg/kg/injection, schedule: Q07DX002 (ip), vehicle: DMSO): 57 % of control
T/C (dose: 0.3 mg/kg/injection, schedule: Q07DX002 (ip), vehicle: DMSO): 85 % of control
T/C (dose: 0.5 mg/kg/injection, schedule: Q07DX002 (ip), vehicle: DMSO): 79 % of control and 93 % of control
T/C (dose: 0.61 mg/kg/injection, schedule: Q07DX002 (ip), vehicle: DMSO): 87 % of control
T/C (dose: 1.0 mg/kg/injection, schedule: Q07DX002 (ip), vehicle: DMSO): 114 % of control and 102 % of control
T/C (dose: 1.22 mg/kg/injection, schedule: Q07DX002 (ip), vehicle: DMSO): 81 % of control
T/C (dose: 2.0 mg/kg/injection, schedule: Q07DX002 (ip), vehicle: DMSO): 121 % of control

CC1=C(/C=C/C(C)=C/C=C/C(C)=C/CO)C(C)(C)CCC1
T/C (dose: 8.0 mg/kg/injection, schedule: Q07DX003 (ip), vehicle: saline with Tween-80): 113 % of control and 106 % of control
T/C (dose: 32.0 mg/kg/injection, schedule: Q07DX003 (ip), vehicle: saline with Tween-80): 194 % of control
T/C (dose: 64.0 mg/kg/injection, schedule: Q07DX003 (ip), vehicle: saline with Tween-80): 111 % of control and 122 % of control

C[C@H]1C[C@@H]2[C@H]([C@@H](O)C[C@@]3(C)[C@H]2CC[C@]3(O)C(=O)CO)[C@@]2(C)C=CC(=O)C=C12
T/C (dose: 6.25 mg/kg/injection, schedule: Q07DX002 (ip), vehicle: Klucel (hydroxypropylcellulose) (HPC)): 82 % of control
T/C [7]: 87 % of control and 88 % of control
T/C [8]: 111 % of control and 86 % of control
T/C [1]: 87 % of control and 88 % of control
T/C [2]: 93 % of control

CCCCCCCC(=O)OCC(=O)[C@]1(O)Cc2c(O)c3c(c(O)c2[C@@H](OC2CC(N)C(O)C(C)O2)C1)C(=O)c1c(OC)cccc1C3=O (stereo partly drawn)
T/C (dose: 2.0 mg/kg/injection, schedule: Q07DX002 (ip), vehicle: suspension in saline): 75 % of control
T/C (dose: 4.0 mg/kg/injection, schedule: Q07DX002 (ip), vehicle: suspension in saline): 70 % of control
T/C (dose: 8.0 mg/kg/injection, schedule: Q07DX002 (ip), vehicle: suspension in saline): 37 % of control

Cc1cc(SCC(=O)c2ccc(Br)cc2)cc(C)[o+]1
T/C (dose: 12.5 mg/kg/injection, schedule: Q07DX002 (ip), vehicle: saline): 122 % of control
T/C (dose: 25.0 mg/kg/injection, schedule: Q07DX002 (ip), vehicle: saline): 77 % of control and 101 % of control
T/C [3]: 111 % of control and 107 % of control
T/C [4]: 98 % of control and 100 % of control
T/C [5]: 100 % of control

O=c1[nH]c(=O)n(C2CC(O)C(CO)O2)cc1C(F)(F)F (stereo not drawn)
T/C (dose: 10.0 mg/kg/injection, schedule: Q07DX002 (ip), vehicle: saline): 83 % of control
T/C (dose: 20.0 mg/kg/injection, schedule: Q07DX002 (ip), vehicle: saline): 77 % of control
T/C [9]: 100 % of control
T/C [3]: 114 % of control
T/C [10]: 117 % of control
T/C [4]: 84 % of control
T/C (dose: 160.0 mg/kg/injection, schedule: Q07DX002 (ip), vehicle: saline): 118 % of control
T/C [11]: 101 % of control
T/C [5]: 95 % of control
T/C (dose: 320.0 mg/kg/injection, schedule: Q07DX002 (ip), vehicle: saline): 156 % of control
T/C (dose: 400.0 mg/kg/injection, schedule: Q07DX002 (ip), vehicle: saline with Tween-80): 94 % of control
T/C (dose: 800.0 mg/kg/injection, schedule: Q07DX002 (ip), vehicle: saline with Tween-80): 105 % of control
T/C [6]: 90 % of control
T/C (dose: 1600.0 mg/kg/injection, schedule: Q07DX002 (ip), vehicle: saline with Tween-80): 108 % of control
T/C (dose: 1600.0 mg/kg/injection, schedule: Q07DX002 (ip), vehicle: saline): 41 % of control

S=P(N1CC1)(N1CC1)N1CC1
T/C (dose: 1.5 mg/kg/injection, schedule: Q07DX003 (ip), vehicle: saline): 99 % of control
T/C (dose: 3.0 mg/kg/injection, schedule: Q07DX003 (ip), vehicle: saline): 50 % of control
T/C (dose: 6.0 mg/kg/injection, schedule: Q07DX003 (ip), vehicle: saline): 55 % of control

COC1=CC(=O)C(OC)=C(OC)C1=O
T/C (dose: 6.25 mg/kg/injection, schedule: Q07DX002 (ip), vehicle: saline with Tween-80): 115 % of control and 92 % of control
T/C [12]: 160 % of control and 185 % of control
T/C [9]: 62 % of control and 65 % of control
T/C [10]: 152 % of control
T/C [11]: 189 % of control

CC(=O)Nc1ccc(C(=O)C=O)cc1
T/C [12]: 62 % of control and 78 % of control
T/C (dose: 25.0 mg/kg/injection, schedule: Q07DX002 (ip), vehicle: saline with Tween-80): 87 % of control and 100 % of control
T/C [11]: 92 % of control

O=C1C=CN(C2OC(CO)C(O)C2O)C(=O)C1 (stereo not drawn)
T/C (dose: 25.0 mg/kg/injection, schedule: Q07DX003 (ip), vehicle: saline): 121 % of control
T/C (dose: 100.0 mg/kg/injection, schedule: Q07DX003 (ip), vehicle: saline): 73 % of control
T/C (dose: 200.0 mg/kg/injection, schedule: Q07DX003 (ip), vehicle: saline): 163 % of control

CN(C)N=Nc1ccccc1
T/C (dose: 12.5 mg/kg/injection, schedule: Q07DX002 (ip), vehicle: Klucel (hydroxypropylcellulose) (HPC)): 80 % of control and 86 % of control
T/C [7]: 42 % of control and 49 % of control
T/C [8]: 24 % of control and 27 % of control
